According to patent US9840488B2, “Carbon monoxide releasing molecules and associated methods” (Utah State University, priority 2015, dated 2017):
In brackets after ≈: the same amount, converted by molar mass. Entries after “also recorded” stand apart in the source; their conditions may differ. Where two headings read alike, the source gives them in different places. Blank lines part the entries; values can stand above or below the compound they belong to.

What was measured:
[1] = target: T1, bovine serum albumin (BSA) (Bos taurus, UniProt P02769); details: literature value, cited from earlier work
T1 sequence (P02769 25-607): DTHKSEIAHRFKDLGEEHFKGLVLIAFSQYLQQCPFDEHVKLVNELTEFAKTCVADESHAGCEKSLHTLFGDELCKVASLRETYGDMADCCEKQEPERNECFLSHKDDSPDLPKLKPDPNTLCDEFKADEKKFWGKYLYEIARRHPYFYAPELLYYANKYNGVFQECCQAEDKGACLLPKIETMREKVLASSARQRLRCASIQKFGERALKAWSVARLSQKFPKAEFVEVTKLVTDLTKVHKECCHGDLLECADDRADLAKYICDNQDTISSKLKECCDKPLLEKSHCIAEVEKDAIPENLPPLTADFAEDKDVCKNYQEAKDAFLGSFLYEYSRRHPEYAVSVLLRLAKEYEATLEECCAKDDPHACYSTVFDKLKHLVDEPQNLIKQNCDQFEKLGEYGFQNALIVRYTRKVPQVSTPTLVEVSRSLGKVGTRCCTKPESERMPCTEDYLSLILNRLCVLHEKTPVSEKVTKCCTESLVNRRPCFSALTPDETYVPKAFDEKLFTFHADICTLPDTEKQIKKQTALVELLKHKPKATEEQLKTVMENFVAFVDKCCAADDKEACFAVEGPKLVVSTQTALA

[2] = system: S. aureus (ATCC 33591-MRSA); assay: Minimum inhibitory concentration, blue light vs dark; type: cell-based; design: key to Minimum inhibitory concentration (MIC): †: No inhibitory effect against bacterial strain
[3] = system: A549 human adenocarcinoma cells; assay: MTT cell viability assay, A549 cells; type: cell-based
Procedure: (§1) Jurkat (JM) cells were maintained as previously described by Shorey et al.^[39] A549 human adenocarcinoma cells (ATCC, Manassas, Va.) cells were grown in DMEM/Ham's F-12 1:1 mixture medium supplemented with 10% charcoal-stripped, heat-inactivated fetal bovine serum (FBS; Caisson Laboratories, Logan, Utah) in a humidified incubator at 37° C. with 5% CO2. Cytotoxicity was determined by the colorimetric MTT [3-(4,5-dimethyl-2-thiazolyl)-2,5-diphenyl-2H-tetrazoluim bromide] assay as previously describe.^[40] Briefly, 2.1×10^3 cells/ml for A549 cells or 1×10^5 cells/ml for Jurkat cells. Test compounds were prepared in DMSO, then added to culture media for a maximum final DMSO concentration not greater than 0.1% (v/v). After addition of test compounds at concentrations ranging from 80 nM to 100 μM, cells were incubated for 24 h in the dark, then treated with MTT to assess cell viability as outlined previously.^[40] All experiments were independently replicated three times, and each experimental treatment was performed in triplicate.

[4] = type: physicochemical; details: for quantum yield Φ of CO-release reaction / eq. CO released: aerobic CH3CN; for eq. CO released: average of three trials
Procedure: ^1H and ^13C{^1H} NMR spectra (in ppm) were collected using JEOL ECX-300 MHz spectrometer and are referenced to the residual solvent peak in CDCl3 (^1H: 7.26 (singlet) ppm; ^13C 77.16 (singlet) ppm) or DMSO-d6 (^1H: 2.50 ppm (quintet)). J values are given in Hz. IR spectra were collected using a Shimadzu FTIR-8400 as potassium bromide pellets. UV-vis spectra were recorded at ambient temperature using a Hewlett-Packard 8453A diode array spectrophotometer. Fluorescence emission spectra were collected using a Shimadzu RF-530XPC spectrometer in the range of 400-800 nm, with the excitation wavelength corresponding to the absorption maxima of the molecules. The excitation and emission slit widths were set at 1.5 nm for all molecules. Mass spectral data was collected at the Mass Spectrometry Facility, University of California, Riverside. ESI/APCI mass spectra were recorded on an Agilent LCTOF (2006) with a Windows XP based operating system. Elemental analyses were performed by Atlantic Microlab, Inc., Norcross, Ga., using a PE2400 automatic analyzer or at Robertson Microlit Laboratories, Ledgewood, N.J. using a Perkin Elmer CHN Analyzer Model 2400, Series II. […] Quantum yields were determined using potassium ferrioxalate or potassium reinekate as standards to measure photon flux.^[36] Carbon monoxide was quantified as previously described.^[37] […]
A solution of 5 in CD3CN (˜3 mM) was prepared in air under minimal red light and placed in an NMR tube. The NMR tube was then covered with foil, placed in a photo reactor, and irradiated using 419 nm lamps for 24 hours.
A solution of 5 in CD3CN (˜3 mM) was prepared under N2 in a glove box and placed in an NMR tube. The NMR tube was then placed in a photo reactor and irradiated using 419 nm lamps for 24 hours. […]

[5] = target: T1, bovine serum albumin (BSA); assay: BSA binding by fluorescence quenching, competitive binding and docking
[6] = Solubility and solution stability
A549 cells = assay: Cellular uptake by fluorescence microscopy; type: cell-based, human
Procedure: A549 cells were maintained in culture as described above, then seeded into seeded into Millicell E-Z-Slide culture chambers (EMD Millipore, Billerica, Mass.) at an initial density of 7.5×10^4 cells/cm^2 and allowed to adhere to the chamber slides for 24 hr. The cells were then treated for 1 hr with the nuclear dye Hoechst 33342 (0.5% v/v) for 10 min, followed by three washes with plain culture media to remove residual dye. All of incubation and wash steps described below were performed in the dark with minimal light exposure. A 100 mM stock solution of compound 5 was prepared in DMSO and then diluted to a working concentration of 2 mM in culture media (DMEM/Ham's F-12). The compound 5 working stock was diluted again to a final concentration of 50 μM in the culture chamber media, and the cells were incubated for 1 hr. The culture chamber was then gently washed thrice with plain culture media. Cells were fixed with a 1:10 (v/v) solution of formaldehyde fixative (Immunochemistry Technologies, Bloomington, Minn.) and culture media for 5 min, then washed twice with plain culture media. Finally, cells were imaged using a Zeiss Axio Observer inverted microscope (Carl Zeiss Microscopy, Thornwood, N.Y.) equipped with fluorescence detection. Images were acquired using a 10× objective with excitation λ of 450-490 nm (BP 470/40 filter) and emission λ of 500-550 nm (BP 525/50 filter) for detection of compound 5 in A549 cells following 30 sec, 3 min or 10 min exposure to visible light. Also, for localization of the Hoechst dye, a single fluorescence image was acquired at excitation λ at 365 nm; emission λ of 420-470 nm (BP 445/50 filter). Acquired images were universally adjusted to enhance contrast levels (same settings for all acquired images for each detection channel) using Adobe Photoshop CS6 (Adobe, San Jose, Calif.).

S. aureus (ATCC 25923) = assay: Minimum inhibitory concentration, blue light vs dark; type: cell-based; design: key to Minimum inhibitory concentration (MIC): †: No inhibitory effect against bacterial strain
E. coli (ATCC 25922) = assay: as above; type: cell-based; design: key to Minimum inhibitory concentration (MIC): †: No inhibitory effect against bacterial strain
Jurkat (JM) cells = assay: MTT cell viability assay, Jurkat cells; type: cell-based, human
Procedure: as §1

Compound: O=c1c(O)c(-c2ccc(O)c(O)c2)oc2cc(O)cc(O)c12 [quercetin]
- binding affinity to BSA ([1]; unit not given): 3.65×10^7

Compound: COc1cccc2c1C(=O)c1c(O)c3c(c(O)c1C2=O)C[C@@](O)(C(=O)CO)C[C@@H]3O[C@H]1C[C@H](N)[C@H](O)[C@H](C)O1 [doxorubicin]
- binding affinity to BSA [1]: 7300 M⁻¹

- melting point: 208 to 210 °C
- Minimum inhibitory concentration (MIC) ([2]; Dark Conditions): †
- MIC ([2]; Staphylococcus aureus, Light Conditions (blue light)): 55.5 µg/mL (≈ 193 µM)
- IC50 ([3]; Homo sapiens, 24 h in the dark, MTT): 41.5 µM
- dark control reaction ([4]; CD3CN in air, tube covered with foil, 419 nm lamps, 24 hours, 1H NMR): no reaction had occurred
- anaerobic control reaction ([4]; CD3CN under N2, 419 nm lamps, 24 hours, 1H NMR): no reaction had occurred
- decrease in the rate of light induced CO-release on binding to BSA ([4]; compound bound to BSA): two-fold
- binding site on BSA ([5]; competitive binding with warfarin and ibuprofen, AutoDock Vina docking): site 1 (subdomain II A)
- binding affinity to BSA ([5]; fluorescence quenching, single binding site): 3200 M⁻¹
- solubility in aqueous DMSO ([6]; 1:1 H2O:DMSO, 0.1% DMSO/RPMI cell culture media): soluble
- solubility in organic solvents ([6]; CH3CN, CH2Cl2, CHCl3, DMSO): readily soluble
- solution stability in the presence of ambient O2 ([6]; acetonitrile, 1:1 DMSO:H2O, or 0.1% DMSO:cell culture media (RPMI-1640; pH=7.4), protected from light): > 2 weeks
- intracellular localization (A549 cells; 1 hr incubation): localized primarily to the cytoplasm
- Minimum inhibitory concentration (MIC) (S. aureus (ATCC 25923); Dark Conditions): †
- MIC (S. aureus (ATCC 25923); Staphylococcus aureus, ATCC25923, Light Conditions (blue light)): 39.4 µg/mL (≈ 137 µM)
- Minimum inhibitory concentration (MIC) (E. coli (ATCC 25922); Dark Conditions): †
- MIC (E. coli (ATCC 25922); Escherichia coli, ATCC25922, Light Conditions (blue light)): 27.8 µg/mL (≈ 96.4 µM)
Compound: O=c1c(O)c(-c2ccccc2)oc2cc3ccccc3cc12 [Compound 5, 3-Hydroxy-2-phenyl-benzo[g]chromen-4-one]
- toxicity by MTT cell viability assay [3]: minimal toxicity
- quantum yield Φ of CO-release reaction ([4]; 419 nm irradiation): 0.007(3)
- eq. CO released ([4]; 419 nm irradiation): 0.96(2) eq
- photoinduced CO-release reaction in other solvents ([4]; methanol and 1:1 H2O:DMSO, 1H NMR and GC head space gas analysis): same reaction occurs
- cellular uptake / cell permeability (A549 cells; 50 μM, 1 hr incubation): cell permeable; also recorded: taken up by almost all cells
- loss of green fluorescence in cells on exposure to visible light (A549 cells; ten minutes visible light): complete loss
- toxicity by MTT cell viability assay (Jurkat (JM) cells): minimal toxicity

- melting point: 191 to 192 °C
Compound: CCN(CC)c1ccc(-c2oc3cc4ccccc4cc3c(=O)c2O)cc1 [Compound 7, 2-(4-(diethylamino)phenyl)-3-hydroxy-4H-benzo[g]chromen-4-one]
- quantum yield Φ of CO-release reaction ([4]; 419 nm irradiation): 0.006(1)
- eq. CO released ([4]; 419 nm irradiation): 0.99(1) eq

Compound: O=c1c(O)c(-c2ccccc2)oc2ccccc12 [3-hydroxyflavone, reference compound]
- eq. CO generated ([4]; photoinduced reaction with O2, λirr=300 nm): 0.95 eq

Compound: CCN(CC)c1ccc(-c2oc3cc4ccccc4cc3c(=S)c2O)cc1 [Compound 9, 2-(4-(diethylamino)phenyl)-3-hydroxy-4H-benzo[g]chromene-4-thione]
- quantum yield Φ of CO-release reaction ([4]; >546 nm irradiation): 0.20(1)
- eq. CO released ([4]; >546 nm irradiation): 1.01(1) eq

Compound: Oc1c(-c2ccccc2)oc2cc3ccccc3cc2c1=S [Compound 8, 3-Hydroxy-2-phenyl-4H-benzo[g]chromene-4-thione]
- quantum yield Φ of CO-release reaction ([4]; 419 nm irradiation): 0.426(3)
- eq. CO released ([4]; 419 nm irradiation): 1.01(1) eq

Compound: O=C(Oc1cc2ccccc2cc1C(=O)O)c1ccccc1 [Compound 6, 3-(benzoyloxy)-2-naphthoic acid]
- toxicity by MTT cell viability assay [3]: completely non-toxic
- toxicity by MTT cell viability assay (Jurkat (JM) cells): completely non-toxic

Compound: 3-acetate-2-phenyl-benzo[g]chromen-4-one [Compound 12]
- stability to visible light relative to 5 [4]: significantly more stable
